Several values for one entry are separate records, joined by “and”; a condition that tells them apart may be missing. Equal entries are not always repeated. Toxic doses and inconclusive results are not listed. Cut-off read from the data, not from the text of the source: active = T/C of 150% or more; inactive = T/C below 125%.
Test system: L1210 leukemia ip in BDF1 mice, survival T/C
Assay: NCI In Vivo Anticancer Drug Screen. Data for tumor model L1210 Leukemia (intraperitoneal) in B6D2F1 (BDF1) mice
Conditions: endpoint: mean survival time, higher = longer survival
Procedure, shortened: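 Tumor cells were implanted, animals were treated, and survival was followed. The result divides the treated measurement by the vehicle-control measurement.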

[1] = dose: 100.0 mg/kg/injection, schedule: Q04DX003 (ip), vehicle: saline
[2] = dose: 200.0 mg/kg/injection, schedule: Q04DX003 (ip), vehicle: saline
[3] = dose: 400.0 mg/kg/injection, schedule: Q04DX003 (ip), vehicle: saline
[4] = dose: 100.0 mg/kg/injection, schedule: Q04DX002 (ip), vehicle: saline with Tween-80
[5] = dose: 100.0 mg/kg/injection, schedule: Q01DX001 (ip), vehicle: carboxymethylcellulose (CMC)
[6] = dose: 200.0 mg/kg/injection, schedule: Q01DX001 (ip), vehicle: carboxymethylcellulose (CMC)
[7] = dose: 400.0 mg/kg/injection, schedule: Q01DX001 (ip), vehicle: carboxymethylcellulose (CMC)
[8] = dose: 100.0 mg/kg/injection, schedule: Q01DX001 (ip), vehicle: saline
[9] = dose: 200.0 mg/kg/injection, schedule: Q01DX001 (ip), vehicle: saline
[10] = dose: 400.0 mg/kg/injection, schedule: Q01DX001 (ip), vehicle: saline

Measured: T/C

C/C(=C/c1c(Br)cc(Br)c(N)c1Br)C(=O)O
inactive: [1] 100 % of control | [2] 102 % of control | [3] 102 % of control

N#CCCc1ccc(O)cc1
inactive: dose: 50.0 mg/kg/injection, schedule: Q01DX009 (ip), vehicle: gum acacia 100 % of control | dose: 100.0 mg/kg/injection, schedule: Q01DX009 (ip), vehicle: gum acacia 107 % of control | dose: 100.0 mg/kg/injection, schedule: Q04DX003 (ip), vehicle: gum acacia 97 % of control | dose: 200.0 mg/kg/injection, schedule: Q01DX009 (ip), vehicle: gum acacia 93 % of control | dose: 200.0 mg/kg/injection, schedule: Q04DX003 (ip), vehicle: gum acacia 97 % of control

O=C(COc1ccc(Br)cc1)Nc1ccc(Cl)cc1
inactive: dose: 100.0 mg/kg/injection, schedule: Q04DX002 (ip), vehicle: Klucel (hydroxypropylcellulose) (HPC) 95 % of control | dose: 200.0 mg/kg/injection, schedule: Q04DX002 (ip), vehicle: Klucel (hydroxypropylcellulose) (HPC) 92 % of control | dose: 400.0 mg/kg/injection, schedule: Q04DX002 (ip), vehicle: Klucel (hydroxypropylcellulose) (HPC) 89 % of control

CNC(=O)NN
inactive: dose: 25.0 mg/kg/injection, schedule: Q04DX002 (ip), vehicle: saline with Tween-80 97 % of control | dose: 50.0 mg/kg/injection, schedule: Q04DX002 (ip), vehicle: saline with Tween-80 93 % of control | [4] 90 % of control

CC(=O)N=C1C=C(NC(C)=O)C(=O)c2ncccc21
inactive: dose: 50.0 mg/kg/injection, schedule: Q04DX003 (ip), vehicle: saline with Tween-80 96 % of control | dose: 100.0 mg/kg/injection, schedule: Q04DX003 (ip), vehicle: saline with Tween-80 96 % of control

C1CCN[N-]C1.C1CCN[N-]C1.[Cl][Pt+2]([Cl])([Cl])[Cl]
inactive: dose: 25.0 mg/kg/injection, schedule: Q04DX003 (ip), vehicle: water 111 % of control | dose: 50.0 mg/kg/injection, schedule: Q04DX003 (ip), vehicle: water 102 % of control | dose: 100.0 mg/kg/injection, schedule: Q04DX003 (ip), vehicle: water 102 % of control

CCc1ccc(/C(C#N)=C/c2ccc(N(C)C)cc2)cc1
inactive: dose: 25.0 mg/kg/injection, schedule: Q01DX009 (ip), vehicle: Klucel (hydroxypropylcellulose) (HPC) 100 % of control | dose: 50.0 mg/kg/injection, schedule: Q01DX009 (ip), vehicle: Klucel (hydroxypropylcellulose) (HPC) 91 % of control | dose: 100.0 mg/kg/injection, schedule: Q01DX009 (ip), vehicle: Klucel (hydroxypropylcellulose) (HPC) 96 % of control and 90 % of control

O=c1[nH]c(=S)[nH]c(Cc2ccccc2)c1CCO
inactive: dose: 100.0 mg/kg/injection, schedule: Q01DX009 (ip), vehicle: saline with Tween-80 96 % of control | dose: 200.0 mg/kg/injection, schedule: Q01DX009 (ip), vehicle: saline with Tween-80 108 % of control | dose: 400.0 mg/kg/injection, schedule: Q01DX009 (ip), vehicle: saline with Tween-80 96 % of control

CC(=O)Nc1[nH]ncc1C(N)=O
inactive: dose: 50.0 mg/kg/injection, schedule: Q01DX001 (ip), vehicle: Klucel (hydroxypropylcellulose) (HPC) 100 % of control | dose: 100.0 mg/kg/injection, schedule: Q01DX001 (ip), vehicle: Klucel (hydroxypropylcellulose) (HPC) 100 % of control | dose: 200.0 mg/kg/injection, schedule: Q01DX001 (ip), vehicle: Klucel (hydroxypropylcellulose) (HPC) 98 % of control

CCOP(=O)(Nc1ccc2c(c1)Cc1c-2cc(Br)c(NC(C)=O)c1Br)OCC
inactive: dose: 50.0 mg/kg/injection, schedule: Q01DX001 (ip), vehicle: carboxymethylcellulose (CMC) 97 % of control | [5] 94 % of control | [6] 105 % of control | [7] 100 % of control

COc1cc(C)c2c(c1OC)C(=O)CC2
inactive: [8] 94 % of control | [9] 105 % of control | [10] 88 % of control

CC/C(=C/c1ccc2c(c1)OCO2)[N+](=O)[O-]
inactive: dose: 25.0 mg/kg/injection, schedule: Q01DX001 (ip), vehicle: saline 100 % of control | dose: 50.0 mg/kg/injection, schedule: Q01DX001 (ip), vehicle: saline 100 % of control | [8] 100 % of control

O=C1C(=C(C(F)(F)F)C(F)(F)F)C2CCC1C2 (stereo unspecified)
inactive: dose: 6.25 mg/kg/injection, schedule: Q01DX009 (ip), vehicle: saline with Tween-80 93 % of control | dose: 6.25 mg/kg/injection, schedule: Q04DX003 (ip), vehicle: saline with Tween-80 114 % of control | dose: 12.5 mg/kg/injection, schedule: Q01DX009 (ip), vehicle: saline with Tween-80 93 % of control | dose: 12.5 mg/kg/injection, schedule: Q04DX003 (ip), vehicle: saline with Tween-80 92 % of control | dose: 25.0 mg/kg/injection, schedule: Q04DX003 (ip), vehicle: saline with Tween-80 96 % of control

O=C1c2cccc3c([N+](=O)[O-])ccc(c23)C(=O)N1CCc1ccccn1
inactive: [4] 106 % of control | dose: 200.0 mg/kg/injection, schedule: Q04DX002 (ip), vehicle: saline with Tween-80 95 % of control | dose: 400.0 mg/kg/injection, schedule: Q04DX002 (ip), vehicle: saline with Tween-80 103 % of control

O=C(O)CNCc1ccc(F)cc1
inactive: dose: 100.0 mg/kg/injection, schedule: Q01DX009 (ip), vehicle: saline 107 % of control | [1] 109 % of control | dose: 200.0 mg/kg/injection, schedule: Q01DX009 (ip), vehicle: saline 108 % of control | [2] 105 % of control | dose: 400.0 mg/kg/injection, schedule: Q01DX009 (ip), vehicle: saline 107 % of control | [3] 102 % of control

Cc1ccc(N=Nc2ccc([N+](=O)[O-])cc2)c([N+](=O)[O-])c1
inactive: [5] 96 % of control | [6] 93 % of control | [7] 96 % of control

CCOC(=O)C1CC2(SCCS2)C(C(=O)O)CC12SCCS2 (stereo unspecified)
inactive: dose: 100.0 mg/kg/injection, schedule: Q04DX003 (ip), vehicle: other 103 % of control | dose: 200.0 mg/kg/injection, schedule: Q04DX003 (ip), vehicle: other 92 % of control | dose: 400.0 mg/kg/injection, schedule: Q04DX003 (ip), vehicle: other 97 % of control

O=C1OC(CO)C(O)C1O (stereo unspecified)
inactive: [8] 101 % of control | [9] 95 % of control | [10] 91 % of control

— PubChem BioAssay AID248 (DTP/NCI, 2004)
